Source: patent EP1247803A2, “Indolinone compounds suitable for modulation of protein kinases” (Sugen, Inc., priority 1996, dated 1998)

Molecular target: T1, EGFR (Homo sapiens, UniProt P00533)
T1 construct: Add 7 ug A431 cell lysate per well (EGFR source); endogenous in cells; host or cells: A431
Experiment: EGFR ELISA assay (in vitro kinase activity, EGFR captured from A431 cell lysate)
Assay type: biochemical
Design: concentration or dose not given beside the values
In short: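 EGFR from A431 lysate was captured on anti-EGFR antibody-coated plates and preincubated with compounds for 30 min. Autophosphorylation ran 5 min with 3 uM ATP and 5 mM MnCl2 (final), stopped with 20 mM EDTA. Phosphotyrosine was detected by anti-pTyr ELISA with ABTS/H2O2, read at 410 nm.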

T1 sequence (P00533 25-1210): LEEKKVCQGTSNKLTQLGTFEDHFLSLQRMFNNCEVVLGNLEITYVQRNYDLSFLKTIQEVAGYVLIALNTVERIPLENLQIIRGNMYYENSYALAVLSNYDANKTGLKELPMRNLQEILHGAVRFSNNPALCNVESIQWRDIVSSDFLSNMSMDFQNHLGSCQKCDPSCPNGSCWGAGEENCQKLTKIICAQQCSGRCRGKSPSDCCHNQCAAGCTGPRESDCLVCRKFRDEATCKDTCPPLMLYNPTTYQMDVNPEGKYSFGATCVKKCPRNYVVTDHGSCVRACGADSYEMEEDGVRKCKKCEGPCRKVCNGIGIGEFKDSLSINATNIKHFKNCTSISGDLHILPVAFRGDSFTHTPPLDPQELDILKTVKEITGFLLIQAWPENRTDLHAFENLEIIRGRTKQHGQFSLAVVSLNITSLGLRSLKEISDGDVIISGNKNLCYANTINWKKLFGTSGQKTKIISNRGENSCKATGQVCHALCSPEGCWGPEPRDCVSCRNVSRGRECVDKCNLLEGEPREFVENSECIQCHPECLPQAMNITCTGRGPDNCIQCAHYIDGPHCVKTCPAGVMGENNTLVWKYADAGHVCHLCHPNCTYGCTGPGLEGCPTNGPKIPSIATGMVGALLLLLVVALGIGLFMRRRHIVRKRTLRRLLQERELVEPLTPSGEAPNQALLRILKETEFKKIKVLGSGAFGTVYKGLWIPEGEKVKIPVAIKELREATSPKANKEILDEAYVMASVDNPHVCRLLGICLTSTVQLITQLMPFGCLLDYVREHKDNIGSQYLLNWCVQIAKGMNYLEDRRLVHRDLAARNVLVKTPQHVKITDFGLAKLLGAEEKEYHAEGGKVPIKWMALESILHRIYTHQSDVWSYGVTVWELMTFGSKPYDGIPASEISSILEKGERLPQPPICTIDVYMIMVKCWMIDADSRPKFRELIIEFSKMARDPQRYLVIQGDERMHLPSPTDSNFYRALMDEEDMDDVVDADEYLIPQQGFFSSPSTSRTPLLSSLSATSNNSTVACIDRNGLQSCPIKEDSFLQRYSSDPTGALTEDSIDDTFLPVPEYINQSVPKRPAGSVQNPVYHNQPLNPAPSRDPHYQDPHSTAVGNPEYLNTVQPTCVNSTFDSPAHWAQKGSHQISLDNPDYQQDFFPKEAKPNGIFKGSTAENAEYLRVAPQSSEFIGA

| Compound | Biochem EGFR %Inhibition [%] |
| --- | --- |
| CN(C)c1ccc(C=C2C(=O)Nc3ccc(CCCl)cc32)c2ccccc12 [10724/G02] | 42.5 |
| O=C1Nc2c(Br)cc(Br)cc2C1=Cc1cc2ccccc2o1 [10724/A07] | 18.3 |
